Results as given in ChEMBL document CHEMBL5236567, “Discovery of a selective c-MET inhibitor with a novel binding mode” (Bioorg Med Chem Lett, 2022).

Tests used:
[1] = biological target: T1, Hepatocyte growth factor receptor (Homo sapiens, UniProt P08581); assay: Inhibition of his-tagged wild type c-MET (1050 to 1346 residues) (unknown origin) in human NCI-H1993 cells by HTRF analysis; assay type: cell-based
[2] = biological target: T1, Hepatocyte growth factor receptor; assay: Inhibition of his-tagged wild type c-MET (1050 to 1346 residues) (unknown origin) by ADP-glo assay
[3] = biological target: T1, Hepatocyte growth factor receptor; assay: Binding affinity to his-tagged wild type c-MET (1050 to 1346 residues) (unknown origin) by surface plasmon resonance analysis
[4] = biological target: T2, Hepatocyte growth factor receptor (Homo sapiens, UniProt P08581, D1228V); assay: Inhibition of his-tagged c-MET D1228V mutant (1050 to 1346 residues) (unknown origin) in human NCI-H1993 cells by HTRF analysis; assay type: cell-based
[5] = biological target: T2, Hepatocyte growth factor receptor; assay: Inhibition of his-tagged c-MET D1228V mutant (1050 to 1346 residues) (unknown origin) by ADP-glo assay
[6] = biological target: T2, Hepatocyte growth factor receptor; assay: Binding affinity to his-tagged c-MET D1228V mutant (1050 to 1346 residues) (unknown origin) assessed as dissociation constant by surface plasmon resonance analysis
[7] = biological target: T1, Hepatocyte growth factor receptor; assay: Binding affinity to his-tagged c-MET (1050 to 1346 residues) (unknown origin) assessed as binding constant (Koff) by surface plasmon resonance analysis
[8] = biological target: T1, Hepatocyte growth factor receptor; assay: Binding affinity to his-tagged c-MET (1050 to 1346 residues) (unknown origin) assessed as binding constant (Kon) by surface plasmon resonance analysis
[9] = biological target: Calcium/calmodulin-dependent protein kinase type 1 (Homo sapiens) (UniProt Q14012); assay: Inhibition of CAMK1 (unknown origin) at 10 uM relative to control
[10] = biological target: TRAF2 and NCK-interacting protein kinase (Homo sapiens) (UniProt Q9UKE5); assay: Inhibition of TNIK (unknown origin) at 10 uM relative to control
[11] = biological target: T1, Hepatocyte growth factor receptor; assay: Inhibition of wild type c-MET (unknown origin ) at 10 uM relative to control

Chain of Calcium/calmodulin-dependent protein kinase type 1 (Homo sapiens) (Q14012 whole entry, looked up): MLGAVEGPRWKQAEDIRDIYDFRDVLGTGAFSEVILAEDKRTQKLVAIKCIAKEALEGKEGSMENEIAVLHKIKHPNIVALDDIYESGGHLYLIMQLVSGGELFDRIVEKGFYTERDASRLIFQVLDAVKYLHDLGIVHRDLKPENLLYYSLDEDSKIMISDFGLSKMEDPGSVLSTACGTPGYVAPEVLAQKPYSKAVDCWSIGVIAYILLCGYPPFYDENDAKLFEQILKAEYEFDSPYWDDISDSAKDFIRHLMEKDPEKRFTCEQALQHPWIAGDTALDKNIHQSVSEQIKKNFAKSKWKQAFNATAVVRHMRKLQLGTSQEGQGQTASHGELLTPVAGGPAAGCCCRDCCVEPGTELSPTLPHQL
Chain of TRAF2 and NCK-interacting protein kinase (Homo sapiens) (Q9UKE5 whole entry, looked up): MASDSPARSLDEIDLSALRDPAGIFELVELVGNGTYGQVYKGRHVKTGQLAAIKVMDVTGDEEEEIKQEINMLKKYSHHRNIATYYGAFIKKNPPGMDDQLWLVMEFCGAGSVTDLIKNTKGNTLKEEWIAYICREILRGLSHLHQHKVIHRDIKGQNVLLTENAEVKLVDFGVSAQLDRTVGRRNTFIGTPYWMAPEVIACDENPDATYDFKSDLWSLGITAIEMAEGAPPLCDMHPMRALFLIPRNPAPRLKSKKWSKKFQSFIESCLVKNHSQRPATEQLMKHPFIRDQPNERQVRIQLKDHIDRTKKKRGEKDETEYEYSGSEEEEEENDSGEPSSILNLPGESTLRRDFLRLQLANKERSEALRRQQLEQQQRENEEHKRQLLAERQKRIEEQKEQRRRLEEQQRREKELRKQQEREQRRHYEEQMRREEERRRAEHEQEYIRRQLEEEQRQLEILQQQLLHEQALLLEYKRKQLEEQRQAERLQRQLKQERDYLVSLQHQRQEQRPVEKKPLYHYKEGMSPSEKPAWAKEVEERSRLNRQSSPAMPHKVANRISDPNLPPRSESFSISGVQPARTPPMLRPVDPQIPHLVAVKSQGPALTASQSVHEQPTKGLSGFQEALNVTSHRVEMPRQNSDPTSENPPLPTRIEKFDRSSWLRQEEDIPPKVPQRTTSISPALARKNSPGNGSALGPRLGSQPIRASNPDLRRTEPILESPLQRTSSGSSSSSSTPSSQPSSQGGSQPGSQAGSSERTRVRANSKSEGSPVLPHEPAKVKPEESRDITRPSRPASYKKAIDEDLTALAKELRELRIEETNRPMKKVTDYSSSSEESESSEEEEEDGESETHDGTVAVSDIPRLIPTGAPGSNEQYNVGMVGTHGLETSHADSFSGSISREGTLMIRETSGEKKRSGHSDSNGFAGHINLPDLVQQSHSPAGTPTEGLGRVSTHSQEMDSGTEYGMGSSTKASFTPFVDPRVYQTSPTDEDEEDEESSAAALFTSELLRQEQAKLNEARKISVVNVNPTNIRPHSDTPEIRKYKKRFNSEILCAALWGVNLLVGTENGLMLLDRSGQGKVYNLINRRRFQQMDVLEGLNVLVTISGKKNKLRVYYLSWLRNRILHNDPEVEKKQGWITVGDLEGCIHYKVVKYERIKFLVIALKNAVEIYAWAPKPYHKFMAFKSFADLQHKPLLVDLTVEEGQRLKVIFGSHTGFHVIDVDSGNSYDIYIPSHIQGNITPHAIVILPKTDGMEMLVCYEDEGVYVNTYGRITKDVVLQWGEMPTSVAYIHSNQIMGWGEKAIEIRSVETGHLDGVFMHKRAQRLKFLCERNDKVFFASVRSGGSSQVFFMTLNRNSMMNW

Row | IC50 ([1]; nci-h1993) | IC50 [2] [µM] | Kd [3] [µM] | IC50 ([4]; nci-h1993) | IC50 [5] [µM] | Kd [6] [µM] | koff [7] [s⁻¹] | K [8] | inhibition [9] [%] | inhibition [10] [%] | IC50 ([1]; read-out: IC50) [µM] | IC50 ([4]; read-out: IC50) [µM] | inhibition [11] [%] | SMILES
1 | Not Active | 4.94 | 2.8 | Not Active | 11 | 5.3 | – | – | – | – | – | – | – | Cc1ccc(-c2ccc3c(C)n[nH]c3c2)c2c1[C@@H](N(C)C(=O)c1ncccc1C(F)F)CCC2
2 | – | – | > 20 | – | – | 1.4 | 0.0053 | 3.7 10^3/M/s | – | – | – | – | – | Cc1ccc(-c2ccc3c(C)n[nH]c3c2)c2c1C(N(C)C(=O)c1ncccc1C(F)F)CCC2 (racemic)
3 | – | 0.9 | 7.2 | – | 0.09 | 0.65 | – | – | > 70 | > 70 | > 30 | 12 | > 70 | Cc1ccc(-c2ccc3c(C)n[nH]c3c2)c2c1[C@H](N(C)C(=O)c1ncccc1C(F)F)CCC2
